Laboratory results: publication PMC3648997 (Bioorganic & medicinal chemistry letters, 2013)
Each block holds one molecule with its values, some of them ahead of it.

How the values were obtained:
Stability over 24 h = settings: over a period of 24 h
Glutathione reactivity = settings: 50 μM glutathione, over 48 h
Keap1 Kelch domain = Keap1 Kelch domain (Homo sapiens, UniProt Q14145); experiment: SPR solution competition assay; assay type: binding
Keap1 Kelch domain, sequence (Q14145 321-609 limits assumed): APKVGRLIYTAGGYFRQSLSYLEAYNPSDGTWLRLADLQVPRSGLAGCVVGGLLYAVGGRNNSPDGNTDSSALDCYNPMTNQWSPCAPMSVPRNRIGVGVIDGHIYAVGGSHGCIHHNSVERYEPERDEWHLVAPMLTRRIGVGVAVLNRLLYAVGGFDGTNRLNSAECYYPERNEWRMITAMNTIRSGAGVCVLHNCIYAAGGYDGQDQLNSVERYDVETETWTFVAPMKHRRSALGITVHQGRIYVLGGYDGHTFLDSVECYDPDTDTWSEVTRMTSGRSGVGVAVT

stability (Stability over 24 h): highly stable
Structure (SMILES): O=C(O)[C@H]1CCCC[C@H]1C(=O)N1CCc2ccccc2[C@H]1CN1C(=O)c2ccccc2C1=O [(SRS)-5]
thiol addition or decomposition (Glutathione reactivity): No thiol addition or decomposition could be detected

fold less active than (SRS)-5 (Keap1 Kelch domain; relative to (SRS)-5): about 20 fold
Structure (SMILES): NC(=O)C1CCCCC1C(=O)N1CCc2ccccc2C1CN1C(=O)c2ccccc2C1=O (centres unmarked) [corresponding amide]

Keap1 binding activity (in words) (Keap1 Kelch domain): completely inactive
Structure (SMILES): COC(=O)C1CCCCC1C(=O)N1CCc2ccccc2C1CN1C(=O)c2ccccc2C1=O (centres unmarked) [corresponding methyl ester]

Structure (SMILES): O=C(O)C1CCCCC1C(=O)N1CCc2ccccc2C1CN1Cc2ccccc2C1=O (centres unmarked) [lactam]
Keap1 binding activity (in words) (Keap1 Kelch domain): only slight decrease in Keap1 binding
